{"source": "patent US4220755A", "about": "“Fortimicin B derivatives and process for production thereof” (Abbott Laboratories, priority 1976, dated 1980)", "key": {"[1]": {"tested_on": "Escherichia coli NIHTC-2", "test": "MIC, agar dilution method, pH 7.2", "type": "cell-based", "conditions": "Escherichia coli, NIHTC2, pH 7.2, read-out: Minimum inhibition concentration (MIC)", "protocol": "(§1) Measurement was carried out according to the agar dilution method, using a medium of pH 8.0, or the Japanese Antibiotic Medicament Standard, using a medium of pH 7.2 Units are in mcg/ml."}, "[2]": {"tested_on": "Eschericihia coli GN2411-5", "test": "MIC, agar dilution method, pH 7.2", "type": "cell-based", "conditions": "Escherichia coli, GN2411, pH 7.2, read-out: Minimum inhibition concentration (MIC)", "protocol": "as §1"}, "[3]": {"tested_on": "Klebsiella pneumoniae KY4274", "test": "MIC, agar dilution method, pH 7.2", "type": "cell-based", "conditions": "Klebsiella pneumoniae, KY4274, pH 7.2, read-out: Minimum inhibition concentration (MIC)", "protocol": "as §1"}, "[4]": {"tested_on": "Proteus vulgaris JJ", "test": "MIC, agar dilution method, pH 7.2", "type": "cell-based", "conditions": "Proteus vulgaris, pH 7.2, read-out: Minimum inhibition concentration (MIC)", "protocol": "as §1"}, "[5]": {"tested_on": "Pseudomonas aeruginosa BMH# 1", "test": "MIC, agar dilution method, pH 7.2", "type": "cell-based", "conditions": "Pseudomonas aeruginosa, pH 7.2, read-out: Minimum inhibition concentration (MIC)", "protocol": "as §1"}, "[6]": {"tested_on": "Pseudomonas aeruginosa UCLA 4184", "test": "MIC, agar dilution method, pH 7.2", "type": "cell-based", "conditions": "UCLA4184; pH 7.2; Pseudomonas aeruginosa UCLA 4184; read-out: Minimum inhibition concentration (MIC)", "protocol": "as §1"}, "[7]": {"tested_on": "Salmonella enteritidis G-14", "test": "MIC, agar dilution method, pH 7.2", "type": "cell-based", "conditions": "Salmonella enterica, ENTERITIDIS, pH 7.2, read-out: Minimum inhibition concentration (MIC)", "protocol": "as §1"}, "[8]": {"tested_on": "Shigella sonnei ATCC9290", "test": "MIC, agar dilution method, pH 7.2", "type": "cell-based", "conditions": "read-out: Minimum inhibition concentration (MIC)", "protocol": "as §1"}, "[9]": {"tested_on": "Staphylococcus aureus 209-P", "test": "MIC, agar dilution method, pH 7.2", "type": "cell-based", "conditions": "pH 7.2; Staphylococcus aureus 209-P; read-out: Minimum inhibition concentration (MIC)", "protocol": "as §1"}, "[10]": {"tested_on": "Staphylococcus aureus Smith (A)", "test": "MIC, agar dilution method, pH 7.2", "type": "cell-based", "conditions": "pH 7.2; Staphylococcus aureus Smith (A); read-out: Minimum inhibition concentration (MIC)", "protocol": "as §1"}, "[11]": {"tested_on": "Staphylococcus a ureus 226", "test": "MIC, agar dilution method, pH 7.2", "type": "cell-based, Staphylococcus aureus", "conditions": "pH 7.2; Staphylococcus aureus 226; read-out: Minimum inhibition concentration (MIC)", "protocol": "as §1"}, "[12]": {"tested_on": "Eschericihia coli 3100", "test": "MIC, agar dilution method, pH 7.2", "type": "cell-based, Escherichia coli", "conditions": "Escherichia coli; pH 7.2; E. coli 3100; read-out: Minimum inhibition concentration (MIC)", "protocol": "as §1"}, "[13]": {"tested_on": "Escherichia coli 57R/W677", "test": "MIC, agar dilution method, pH 7.2", "type": "cell-based", "conditions": "57R/W677, pH 7.2, read-out: Minimum inhibition concentration (MIC)", "protocol": "as §1\n(§2) **1: gentamicin, producing adenylsynthetase."}, "[14]": {"tested_on": "Escherichia coli 76-2", "test": "MIC, agar dilution method, pH 7.2", "type": "cell-based", "conditions": "Escherichia coli, 762, pH 7.2, read-out: Minimum inhibition concentration (MIC)", "protocol": "as §1, §2"}, "[15]": {"tested_on": "Escherichia coli R12 Z-338", "test": "MIC, agar dilution method, pH 7.2", "type": "cell-based", "conditions": "R12Z338, pH 7.2, E. coli R12 Z-338, 1**: gentamicin, producing adenylsynthetase, read-out: Minimum inhibition concentration (MIC)", "protocol": "as §1, §2"}, "[16]": {"tested_on": "Klebsiella pneumoniae 3020 Y-60", "test": "MIC, agar dilution method, pH 7.2", "type": "cell-based", "conditions": "3020Y60; pH 7.2; Klebsiella pneumoniae 3020 Y-60; 1**: gentamicin, producing adenylsynthetase; read-out: Minimum inhibition concentration (MIC)", "protocol": "as §1, §2"}, "[17]": {"tested_on": "Escherichia coli R18 KY8321", "test": "MIC, agar dilution method, pH 7.2", "type": "cell-based", "conditions": "R18KY8321, E. coli R18 KY8321, 2**: gentamicin, producing adenylsynthetase and neomycin phosphotransferase type II, read-out: Minimum inhibition concentration (MIC)", "protocol": "as §1\n2: gentamicin, producing adenylsynthetase and neomycin phosphotransferase"}, "[18]": {"tested_on": "Escherichia coli R17 Z343", "test": "MIC, agar dilution method, pH 7.2", "type": "cell-based", "conditions": "R17Z343, pH 7.2, read-out: Minimum inhibition concentration (MIC)", "protocol": "as §1\n(§3) 3: kanamycin, producing acetyltransferase."}, "[19]": {"tested_on": "Pseudomonas aeruginosa R9 KY8516", "test": "MIC, agar dilution method, pH 7.2", "type": "cell-based", "conditions": "R9KY8516, pH 7.2, P. aeruginosa R9 KY8516, 3**: kanamycin, producing acetyltransferase, read-out: Minimum inhibition concentration (MIC)", "protocol": "as §1, §3"}, "[20]": {"tested_on": "Serratia marcescens 1065", "test": "MIC, agar dilution method, pH 7.2", "type": "cell-based", "conditions": "Serratia marcescens, 1065, pH 7.2, read-out: Minimum inhibition concentration (MIC)", "protocol": "as §1, §3"}, "[21]": {"tested_on": "Escherichia coli R20 KY8349", "test": "MIC, agar dilution method, pH 7.2", "type": "cell-based", "conditions": "R20KY8349, pH 7.2, read-out: Minimum inhibition concentration (MIC)", "protocol": "as §1\n5: neomycin, producing phosphotransferase type I."}, "[22]": {"tested_on": "Pseudomonas aeruginosa R5 KY8512", "test": "MIC, agar dilution method, pH 7.2", "type": "cell-based", "conditions": "R5KY8512, pH 7.2, read-out: Minimum inhibition concentration (MIC)", "protocol": "as §1\n6: neomycin, producing phosphotransferase type I and type II."}, "[23]": {"tested_on": "Providencia sp 164", "test": "MIC, agar dilution method, pH 7.2", "type": "cell-based", "conditions": "pH 7.2; Providencia sp 164; 7**: gentamicin, producing acetyltransferase type II; read-out: Minimum inhibition concentration (MIC)", "protocol": "as §1\n7: gentamicin, producing acetyltransferase type II."}, "[24]": {"tested_on": "Staphylococcus aureus KY4279 ATCC6538P", "test": "MIC, agar dilution method, pH 8.0", "type": "cell-based", "conditions": "pH 8.0, Staphylococcus aureus KY4279, read-out: Minimum inhibition concentration (MIC), SA", "protocol": "as §1\nS.A.: Staphylococcus aureus KY4279 ATCC6538P"}, "[25]": {"tested_on": "Eschericia coli KY4271 ATCC26", "test": "MIC, agar dilution method, pH 8.0", "type": "cell-based", "conditions": "Escherichia coli, ATCC26; pH 8.0; E. coli KY4271; read-out: Minimum inhibition concentration (MIC), EC", "protocol": "as §1\nE.C.: Eschericia coli KY4271 ATCC26"}, "[26]": {"tested_on": "Proteus vulgaris KY4277 ATCC6897", "test": "MIC, agar dilution method, pH 8.0", "type": "cell-based", "conditions": "ATCC6897; pH 8.0; Proteus vulgaris KY4277; read-out: Minimum inhibition concentration (MIC), PV", "protocol": "as §1"}, "[27]": {"tested_on": "Shigella sonnei KY4281 ATCC9290", "test": "MIC, agar dilution method, pH 8.0", "type": "cell-based", "conditions": "ATCC9290; pH 8.0; Shigella sonnei KY4281; read-out: Minimum inhibition concentration (MIC), SS", "protocol": "as §1"}, "[28]": {"tested_on": "Klebsiella pneumoniae KY4275 ATCC10031", "test": "MIC, agar dilution method, pH 8.0", "type": "cell-based", "conditions": "ATCC10031; pH 8.0; Klebsiella pneumoniae KY4275; read-out: Minimum inhibition concentration (MIC), KP", "protocol": "as §1\nK.P.: Klebsiella pneumoniae KY4275 ATCC10031."}}, "data": [{"smiles": "CO[C@H]1[C@@H](O)[C@H](N)[C@@H](O[C@H]2O[C@H]([C@H](C)N)CC[C@H]2N)[C@H](O)[C@@H]1N(C)C[C@@H](O)CCN", "note": "[Compound 27, 4-N-[(S)-4-amino-2-hydroxybutyl]fortimicin B]", "values": [{"measurement": "MIC", "setting": "[1]", "result": 3.12, "unit": "µg/mL"}, {"measurement": "MIC", "setting": "[2]", "result": 6.25, "unit": "µg/mL"}, {"measurement": "MIC", "setting": "[3]", "result": 3.12, "unit": "µg/mL"}, {"measurement": "MIC", "setting": "[4]", "result": 3.12, "unit": "µg/mL"}, {"measurement": "MIC", "setting": "[5]", "result": 6.25, "unit": "µg/mL"}, {"measurement": "MIC", "setting": "[6]", "result": 25, "unit": "µg/mL"}, {"measurement": "MIC", "setting": "[7]", "result": 3.12, "unit": "µg/mL"}, {"measurement": "MIC", "setting": "[8]", "result": 3.12, "unit": "µg/mL"}, {"measurement": "MIC", "setting": "[9]", "result": 0.4, "unit": "µg/mL"}, {"measurement": "MIC", "setting": "[10]", "result": 0.4, "unit": "µg/mL"}, {"measurement": "MIC", "setting": "[11]", "result": 0.4, "unit": "µg/mL"}, {"measurement": "MIC", "setting": "[12]", "result": 12.5, "unit": "µg/mL"}, {"measurement": "MIC", "setting": "[13]", "result": 12.5, "unit": "µg/mL"}, {"measurement": "MIC", "setting": "[14]", "result": 6.25, "unit": "µg/mL"}, {"measurement": "MIC", "setting": "[15]", "result": 12.5, "unit": "µg/mL"}, {"measurement": "MIC", "setting": "[16]", "result": 12.5, "unit": "µg/mL"}, {"measurement": "MIC", "setting": "[17]", "result": 6.25, "unit": "µg/mL"}, {"measurement": "MIC", "setting": "[18]", "result": 3.12, "unit": "µg/mL"}, {"measurement": "MIC", "setting": "[19]", "result": 25, "unit": "µg/mL"}, {"measurement": "MIC", "setting": "[20]", "result": 6.25, "unit": "µg/mL"}, {"measurement": "MIC", "setting": "[21]", "result": 1.25, "unit": "µg/mL"}, {"measurement": "MIC", "setting": "[22]", "result": 6.25, "unit": "µg/mL"}, {"measurement": "MIC", "setting": "[23]", "result": 25, "unit": "µg/mL"}, {"measurement": "MIC", "setting": "[24]", "result": 0.04, "unit": "µg/mL"}, {"measurement": "MIC", "setting": "[25]", "result": 0.16, "unit": "µg/mL"}, {"measurement": "MIC", "setting": "[26]", "result": 0.32, "unit": "µg/mL"}, {"measurement": "MIC", "setting": "[27]", "result": 1.25, "unit": "µg/mL"}, {"measurement": "MIC", "setting": "[28]", "result": 0.32, "unit": "µg/mL"}]}]}
